# Literature values in patent publication US6355226B1, “Topical treatment of skin disease and eye afflictions” (Advanced Viral Research Corp., priority 1997, dated 2002).
# What was measured:
# [1] = test system: genital herpes infection; conditions: topically administered ointment
# [2] = test system: cytomegalovirus (CM)
# [3] = test system: herpes simplex 1 and 2 (HSV 1 and 2)
compound,measurement,setting,value
Nc1nc2c(ncn2COCCO)c(=O)[nH]1 [acyclovir],effect on recurrent genital herpes disease,[1],"little if any, effect"
same,effectiveness in primary first occurrence of genital herpes infection,[1],seems to be effective
same,effectiveness against cytomegalovirus,[2],not against cytomegalovirus
same,effectiveness against HSV 1 and 2,[3],specifically effective
